# According to patent publication US12232496B2, “Methods and system for stimulating root exudation in plants” (YEDA RESEARCH AND DEVELOPMENT CO. LTD, priority 2018, dated 2025):
# Test system: Catharanthus roseus
# Test: Split-root Catharanthus roseus seedlings: Root A stimulated, exudates analysed by MRM-LC-MS/MS
# Type: in vivo
# Settings: applied to Root A; Root B exudate a week after stimulation; FIG. 16B
# Experimental: Split roots are generated by cutting off the primary root. Lateral roots are then regenerated until they are long enough for the lateral roots to be placed directly in separate hydroponics or aeroponics containers. Each container is fed with plant medium.
# Catharanthus roseus were grown, and split roots were obtained using the methods of Example 2. After lateral roots emerged, roots were aseptically placed separately in two 20 ml glass containers containing 0.5× Hoagland nutrient solution. Similar to Example 8, Root A of seedlings was stimulated with methyl-jasmonate, while growing in hydroponics using plant nutrient medium. Plants were incubated at 24° C. with a photoperiod of 16 h. A week after stimulation, the plant medium containing exudates from Root A and B were collected, filtered and extracted for LC-MS analysis. FIG. 16A depicts the MRM-LC-MS/MS analysis of C. roseus exudates. Vinca alkaloids present in the exudates of Root B after methyl jasmonate stimulation (FIG. 16A, top) and control plants (FIG. 16A, bottom) were analyzed via total ion current chromatograms. The quantification of three vinca alkaloids (19S-Vindolinine_RT_3.93, Vindolinine_RT_4.96, and Catarantine_11.77) was performed using an external standard curve of these three metabolites (FIG. 16B). […]
smiles,measurement,value
"CC/C=C\CC1C(=O)CCC1CC(=O)OC (stereo not shown) [Methyl jasmonate, methyl jasmonate]","Vindolinine found in Root B exudate of treated plants, fold increase",up to 32 ×
